“And” between values parts separate entries of the source, which are not always exact repeats. Identical values can stand only once.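 1) Cells in 96-well plates. 2) Compound, 48 h, 5 concentrations. 3) Linear interpolation between surrounding doses. 4) Unreached endpoint = highest concentration. At the GI50, growth is halved. TGI denotes the concentration required for complete inhibition of growth.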

The test relates to MDA-MB-468 breast. Briefly: growth of human tumour cells (NCI), 48 h.
With `COc1ccc(-c2cc(-c3ccccc3)nc(SCCCC(=O)NO)n2)cc1OC`, the GI50 is 1.44 µM and the TGI turned out to be 3.62 µM.
For the compound `C#CCn1cnc2cnc(Nc3cccc(NC(=O)CCl)c3)nc21`, the GI50 is 8.13 µM and the TGI amounted to 22.8 µM.
Turning to `C[C@@]1(C(=O)Nc2ccc(F)nc2)CCCN1c1nc(Nc2cc(C3CC3)[nH]n2)c2cccn2n1`, the GI50 is 0.25 µM and 0.526 µM; the TGI came out at 4.37 µM.
Regarding `COc1ccc(/C=C/C(=O)c2cc3c(N)c(C(=O)Nc4cccc(Cl)c4C)sc3nc2C)cc1`, the GI50 is 0.176 µM and the TGI is 2.45 µM.
Turning to `CCOC(=O)N1C/C(=C/c2ccc(Cl)cc2)C(=O)/C(=C/c2ccc(Cl)cc2)C1`, the GI50 was 1.96 µM and the TGI amounted to 5 µM.
For the compound `O=C(Nc1nc(-c2ccc(Cl)cc2)cs1)c1cc(-c2ccc(Br)cc2)nc2ccc(Cl)cc12`, the GI50 was 10.9 µM and the TGI stood at 78.3 µM.
On to `CCN(CC)Cc1cc(Nc2c3ccc(Cl)cc3nc3ccc(OC)cc23)ccc1O`, for which the GI50 was 1.71 µM and the TGI worked out at 3.67 µM.
For the compound `COc1cc2c3c(n(CCCNC4CCC4)c(=O)c2cc1OC)-c1cc2c(cc1C3=O)OCO2`, the GI50 was 1.41 µM and the TGI was determined as 3.22 µM.
As to `O=c1c2cc(F)ccc2sc2c(Nc3ccncc3)nc3ccccc3c12`, the GI50 is 1.78 µM and the TGI is 3.5 µM.
For `COc1ccc(CC(C)=C(c2ccc(OCCN3CCCCCC3)cc2)c2ccc(OCCN3CCCCCC3)cc2)cc1`, the GI50 was 0.176 µM and the TGI is 0.667 µM.
As for `CCO/C=N/C1=C(C#N)C(c2ccc(OC)cc2)c2sc3c(F)cccc3c2O1` (stereo not drawn), the GI50 is 2.41 µM and the TGI was found to be 19.4 µM.
In the same order, the values of `O=C(NNc1nc2cc(F)c(F)cc2n2cccc12)c1ccncn1` are 0.241 µM and 1.58 µM.
In the same order, the values of `COc1cc(-c2ccc(-c3ccc(C(=N)N)cc3)s2)cc(OC)c1OC` are 1.64 µM and 3.15 µM.
As for `C[n+]1c(-c2ccccc2)c2cc(N)ccc2c2ccccc21`, the GI50 was 0.224 µM and the TGI turned out to be 1.53 µM.
Regarding `O=C1[C@@H]2Cc3c([nH]c4ccccc34)[C@H](c3c(Cl)cccc3Cl)N2C(=O)CN1C1CCN(Cc2ccccc2)CC1`, the GI50 is 2.09 µM and the TGI came to 4.27 µM.
`Cn1ncc(NC(=O)c2nc(-c3c(F)cccc3F)sc2N)c1N1CC[C@@H](N)[C@H](F)CC1`: the GI50 is 9.7 µM and the TGI amounted to 26.8 µM.
Take `CC(C)=CCC/C(C)=C/CC/C(C)=C/CC/C(C)=C/CSC[C@H](NC(=O)CCCCCN1CCN(C)CC1)C(=O)NC1CCCCC1`: the GI50 was 1.97 µM and the TGI amounted to 4.49 µM.
The matching figures for `COC(=O)[C@@H](C)C[C@H](Cc1ccc2ccccc2c1)NC(=O)c1csc([C@@H](C[C@H](C(C)C)N(C)C(=O)[C@@H](NC(=O)[C@H]2CCCCN2C)C(C)C)OC(C)=O)n1`: 0.00683 µM and greater than 25 µM.
Regarding `C=C1C(=O)O[C@H]2[C@H]1CC/C(COC(=O)/C=C/C(=O)NCc1ccc(Cn3c(=O)sn(-c4ccccc4)c3=O)cc1)=C\CC[C@@]1(C)O[C@@H]21`, the GI50 is 1.35 µM and the TGI was found to be 3.69 µM.
In the same order, the values of `COc1cc2c(cc1OCCCCCn1c(-c3ccc(OCc4ccccc4)cc3)nc3cc(N4CCOCC4)ccc31)N=C[C@@H]1CCCN1C2=O` are 0.936 µM and 5.1 µM.
For `C#C[C@]1(O)CC[C@H]2[C@@H]3CC=C4c5sc(Nc6nc(C)cc(OC)n6)nc5CC[C@]4(C)[C@H]3CC[C@@]21C`, the GI50 is 4.47 µM and the TGI was greater than 100 µM.
The matching figures for `Clc1ccc2c(c1)C(Br)c1cc(Cl)cc(Cl)c1-2` (stereo not drawn): 35.6 µM and greater than 100 µM.
With `c1ccc2cc(C[n+]3ccn(CCCCCCCCCCCCn4cc[n+](Cc5ccc6ccccc6c5)c4)c3)ccc2c1`, the GI50 is 0.494 µM and the TGI is 1.28 µM.
As for `CCn1c(=O)c(Oc2ccc(F)cc2F)cc2cnc(NC3CCOCC3)nc21`, the GI50 was greater than 25 µM and the TGI was greater than 25 µM.
`Nc1nonc1C(=Nc1ccc(F)c(Cl)c1)NO`: the GI50 was 29.8 µM and the TGI is greater than 100 µM.
For `CC1(C)C(N(O)C(=O)Nc2ccc(Cl)cc2)N(c2ccc(Cl)cc2)C(=O)N1CC(=O)N/N=C/C=C/c1ccc([N+](=O)[O-])o1` (stereo not drawn), the GI50 is 1.62 µM and the TGI is 5.35 µM.
The matching figures for `COc1cc2c(cc1I)-c1c(cc(OC)c(OC)c1OC)CC[C@@H]2NC(C)=O`: 0.244 µM and 0.738 µM.
With `O=C(Nc1ccc(Br)cc1)Nc1nc2ccc([N+](=O)[O-])cc2s1`, the GI50 is 1.67 µM and the TGI was found to be 3.29 µM.
Consider `O=C(c1ccc(Cl)cc1)c1no[n+]([O-])c1C(=O)c1ccc(Cl)cc1`, for which the GI50 was 9.22 µM and the TGI turned out to be 27.7 µM.
Turning to `CCNCc1c(-c2cccc(OC(F)(F)F)c2)[nH]c2ccc(N3CCCC3)cc2c1=O`, the GI50 is 2.22 µM and the TGI is 5.74 µM.
For `CNC(=O)NCC1OC(n2cnc3c(NC(=O)Nc4ccccc4)ncnc32)C(O[Si](C)(C)C(C)(C)C)C1CC(=O)N(C)OC` (stereo not drawn), the GI50 was 1.87 µM and the TGI was determined as 6.38 µM.
The matching figures for `COc1cc(/C=C/c2cc(/C=C/c3ccc(O)c(OC)c3)n(-c3c(Cl)cccc3Cl)c(=O)n2)ccc1O`: 2.76 µM and 7.18 µM.
Turning to `c1ccc([P+](c2ccccc2)(c2ccccc2)c2ccc3c4ccc([P+](c5ccccc5)(c5ccccc5)c5ccccc5)c5cccc(c6cccc2c63)c54)cc1`, the GI50 was 0.838 µM and the TGI was determined as 7.46 µM.
`Nc1nc(N)c(N=Nc2ccccc2)c(-c2ccccc2)n1`: the GI50 is 1.06 µM and the TGI amounted to 11.4 µM.
In the same order, the values of `N#Cc1c(-c2ccccc2)cc(-c2ccccc2)n(CCCC(=O)NO)c1=O` are 1.46 µM and 4.56 µM.
The matching figures for `COc1cc2ccnc(C=O)c2cc1OC`: 31.9 µM and greater than 100 µM.
Take `CC1(C)CN(c2cc(C(F)(F)F)cc3cncn23)CCC12NC(=O)NC2=O` (stereo not drawn): the GI50 was 22.5 µM and the TGI turned out to be 82.9 µM.
Consider `CC(=O)/C=C/c1ccc(OCc2ccc(C(C)(C)C)cc2)cc1`, for which the GI50 is 33.9 µM and the TGI is greater than 1000 µM.
Consider `CCNC(=O)N1CCc2cc(OC)c(OCCc3ccc(OC)c(N)c3)cc2C1c1ccc(C)cc1C` (stereo not drawn), for which the GI50 is 0.301 µM and the TGI was 15.8 µM.

(Values after PubChem BioAssay (NCI).)
